Assay [1] concerns S. aureus Oxford. Description: MIC by agar dilution, S. aureus Oxford. To be noted: Staphylococcus aureus, Diagnostic Sensitivity Test, inoculum 10^4 CFU/spot. The format is cell-based. On the technique in general: Agar dilution tests growth on a series of plates holding different concentrations.
From the text: (§1) The antibacterial activity is described in terms of the minimum inhibitory concentration (MIC) determined by the agar-dilution technique with an inoculum size of 10^4 CFU/spot.
In assay [2] the test system is E. coli DCO. As to the kind of experiment: MIC by agar dilution, E. coli DCO. The format is cell-based. The settings on record: Escherichia coli, Diagnostic Sensitivity Test, inoculum 10^4 CFU/spot.
From the text: as §1
Assay [3] relates to P. morganii I + 001. As to the kind of experiment: MIC by agar dilution, P. morganii I + 001. The format is cell-based. The settings on record: Morganella morganii, Diagnostic Sensitivity Test, inoculum 10^4 CFU/spot.
From the text: as §1
The subject of assay [4] is Enterobacter cloacae P99-. As to the kind of experiment: MIC by agar dilution, Enterobacter cloacae P99-. Format: cell-based.
From the text: as §1
In assay [5] the test system is B. fragilis AMP S. Description: MIC by agar dilution, B. fragilis AMP S. Format: cell-based. To be noted: Bacteroides fragilis, Diagnostic Sensitivity Test, inoculum 10^4 CFU/spot.
From the text: as §1
The test system of assay [6] is bacteria. To be noted: cited from earlier work.

Broadly, the MIC is the lowest concentration found to suppress growth.

≈ marks a conversion by molar mass, not a printed value.

Regarding `C[C@@H](O)[C@H]1C(=O)N2C(C(=O)O)=C(S[C@@H]3CN[C@H](C(=O)Nc4ccc(C(=O)O)cn4)C3)[C@H](C)[C@H]12` [Example 4, (1R,5R,6S,8S,2'S,4'S)-2-(2-(5-Carboxy-2-pyridylcarbamoyl)pyrrolidin-4-ylthio)-6-(1-hydroxyethyl)-1-methylcarbapenem-3-carboxylic acid], the MIC worked out at 0.13 µg/mL (≈ 0.273 µM) in assay [1]; 0.02 µg/mL (≈ 0.042 µM) in assay [2]; 0.02 µg/mL in assay [3]; 0.02 µg/mL (≈ 0.042 µM) in assay [4]; 0.25 µg/mL (≈ 0.525 µM) in assay [5].

As for `C[C@@H](O)[C@H]1C(=O)N2C(C(=O)O)=C(SCCN=CN)C[C@H]12` [imipenem, N-formimidoyl thienamycin], in assay [6], the antibacterial activity entry is given as “broad spectrum of antibacterial activity”.
